Holding throughout (type): cell-based
The test system of assay [1] is production of PGD2 (cyclooxygenase pathway) by RBL-1 cells. As to the kind of experiment: Inhibition of the cyclooxygenase pathway (PGD2 formation) in RBL-1 cells. To be noted: Rattus norvegicus, 5 min, [14C]-arachidonic acid plus calcium ionophore, N in brackets, read-out: RBL-cells PGD2 formation IC50 ± SD (N). How it is done:
METHOD FOR ASSESSING THE INHIBITION OF THE CYCLOOXYGENASE PATHWAY IN (RBL) CELLS
a) RBL-1 cell incubations. […] A 0.5 ml allquot of cell suspension was preincubated at 30° C. for 10 minutes with 1 μl dimethyl sulfoxide (DMSO) solution of drug. […] Five minutes later, the incubation was terminated by the addition of a 0.27 ml volume of acetonitrile (ACN)/acetic acid (HOAc) (100:3). The mixture was then clarified of precipitated protein by centrifugation. Analysis of 5-LO/COX pathway products was performed by radioactivity monitoring after separation by high performance liquid chromatography (HPLC). […] The area under the curve (AUC) as measured in integration units for each product was compared to the average AUC value for untreated (no drug) controls. […] Half-maximal (IC50) points were estimated from these curves.

Assay [2] concerns IL-1β release by human monocytes. Kind of assay: ATP-induced IL-1β posttranslational processing (ATP kick), ELISA. To be noted: Monocyte, LPS-stimulated human monocytes, IL-1β ELISA, read-out: Human Monocyte AtP kick % Inh. How it is done: PROTOCOL FOR ATP-INDUCED IL-Iβ POSTTRANSLATIONAL PROCESSING
Cells: Human monocytes were isolated by Ficoll-Hypaque centrifugation of heparinized blood. The monocyte band off the gradient was collected, diluted with RPMI 1640, 5% fetal bovine serum (FBS), 20 mM N-[2[hydroxyethyl]piperazine-N-[2-ethanesulfonic acid] (Hepes), pH 7.3 (40 ml) and the cells were collected by centrifugation. The cell pellet was washed twice with 30 ml of RPMI 1640, 5% FBS, 20 mM Hepes (Maintenance Medium). The monocytes were resuspended in 50 ml of the Maintenance Medium. Into each well of a 96 well plate was added […] mononuclear cells. The cell suspension was diluted to a final concentration of 1.5×10^5 mononuclear cells. (To accomplish this, the cell suspension was diluted to a final concentration of 1.5×10^6 cell/ml and 0.2 ml was added to each well of the plate.) After incubating at 37° C. for 2 hours, the supernatant containing non-adherent cells was removed by aspiration. The adherent cells were washed once with 0.15 ml of Maintenance medium. Then, 0.15 ml of fresh Maintenance Medium was added and the cells were incubated overnight at 37° C.
Stimulation: Lipopolysaccharide (LPS) was added to a final concentration of 10 ng/ml and incubated at 37° C. for 2 hours. […]
(ELISA stands for enzyme-linked immunosorbent assay.)

For assay [3] the test system is unchanged. Kind of assay: ATP kick, slightly different assay that employed metabolically labeled cells. To be noted: Monocyte, read-out: Human Monocyte AtP kick IC50 (No. Trials), starred values. The source says: *Values for tenidap (the first compound in the table), and in one case
ilonidap (the second compound in the table) were derived from a slightly
different assay that employed metabolically labeled cells.

Five molecules from patent US5545656A, “2-Oxidole-1-carboxamide pharmaceutical agents for the treatment of alzheimer's disease” (Pfizer Inc., priority 1995, dated 1996) can be followed below.

Broadly, the IC50 is the midpoint of a concentration-inhibition curve.

Take `Cc1ccc2c(c1)C(C(=O)c1cccs1)C(=O)N2C(N)=O` (centres unmarked) [CH3 H 2'-thienyl]: the IC50 in assay [1] was determined as 99 µM. Moreover, the inhibition at 19 µM in assay [2] stood at 32%.

For the molecule `NC(=O)N1C(=O)C(C(=O)c2ccoc2)c2cc(Cl)ccc21` (centres unmarked) [Cl H 3'-furyl], the IC50 in assay [1] worked out at 3.2 µM. In the case of `NC(=O)N1C(=O)C(C(=O)c2ccsc2)c2cc(Cl)ccc21` (centres unmarked) [Cl H 3'-thienyl], in assay [1], the IC50 came out at 0.7 µM. The inhibition at 19 µM in assay [2] is 14%. For the molecule `NC(=O)N1C(=O)C(C(=O)C(F)(F)F)c2cc(Cl)ccc21` (centres unmarked) [Cl H Trifluoromethyl], the IC50 in assay [1] was determined as 37 µM. `NC(=O)N1C(=O)C(C(=O)c2cccs2)c2cc(Cl)ccc21` (centres unmarked) [tenidap, 5-chloro-2,3-dihydro-2-oxo-3-(2-thienylcarbonyl)-indole-1-carboxamide]: the IC50 in assay [1] worked out at 0.02 ± 0.02 µM; in assay [3] it was 40 µM.
